Columns and labels:
HCT-116 = assay: cells; details: Homo sapiens
[1] = molecular target: RAF proto-oncogene serine/threonine-protein kinase (Homo sapiens, UniProt P04049); assay: Inhibition of C-Raf
A-375 = assay: cells; details: Homo sapiens

Sequence of RAF proto-oncogene serine/threonine-protein kinase (P04049 whole entry): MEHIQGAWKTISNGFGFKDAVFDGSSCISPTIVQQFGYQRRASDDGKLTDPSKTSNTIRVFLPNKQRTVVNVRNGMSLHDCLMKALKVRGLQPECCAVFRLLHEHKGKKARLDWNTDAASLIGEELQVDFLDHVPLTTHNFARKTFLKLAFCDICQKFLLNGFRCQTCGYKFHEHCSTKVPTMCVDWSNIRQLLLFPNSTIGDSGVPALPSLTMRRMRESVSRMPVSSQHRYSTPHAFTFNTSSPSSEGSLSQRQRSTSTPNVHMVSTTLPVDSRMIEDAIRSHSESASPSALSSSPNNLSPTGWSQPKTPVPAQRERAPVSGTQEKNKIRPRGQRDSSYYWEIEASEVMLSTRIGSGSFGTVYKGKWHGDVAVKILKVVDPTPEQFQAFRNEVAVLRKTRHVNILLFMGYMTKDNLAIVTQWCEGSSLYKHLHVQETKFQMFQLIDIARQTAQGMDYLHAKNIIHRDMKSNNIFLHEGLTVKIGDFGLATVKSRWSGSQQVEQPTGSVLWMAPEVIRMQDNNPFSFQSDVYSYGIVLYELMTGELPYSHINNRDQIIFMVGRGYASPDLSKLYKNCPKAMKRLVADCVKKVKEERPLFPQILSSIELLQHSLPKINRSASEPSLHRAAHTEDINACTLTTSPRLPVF

IC50 (HCT-116) | IC50 (A-375) | Compound | Ki [1]
> 20000 nM | < 500 nM | OCCn1cc(-c2ccc3c(c2)CC/C3=N\O)c(-c2ccncc2)n1 | 
27000 nM | 500 nM | CCCS(=O)(=O)Nc1ccc(F)c(C(=O)c2c[nH]c3ncc(Cl)cc23)c1F [PLX-4720] | 
4600 nM | 370 nM | CN(C)CCOc1ccc(-c2nc(-c3ccncc3)c(-c3ccc4c(c3)CC/C4=N\O)[nH]2)cc1 [SB590885] | 
2000 nM | 2400 nM | CNC(=O)c1cc(Oc2ccc(NC(=O)Nc3ccc(Cl)c(C(F)(F)F)c3)cc2)ccn1 [SORAFENIB] | 

Compound | IC50 (HCT-116) | IC50 (A-375) | Ki [1]
Cc1ccc2c(Nc3ccc(Cl)cc3)nccc2c1Nc1ncccc1-c1ncnc2[nH]cnc12 | 720 nM | 310 nM | 0.3 nM

— ChEMBL document CHEMBL2169832, “Conformation-specific effects of Raf kinase inhibitors” (J Med Chem, 2012)
